Assay: Presence of prodrug in mouse and absorbency (plasma AUC after oral administration)
Type: in vivo
Conditions: male, Balb/cA, mouse, 17 umol/kg, mice, 17 μmol/kg, administered compound itself in plasma, read-out: AUC0-6hr
Experimental: The dosage amounts of the compounds of Comparative Examples 1 to 5 and Examples 1 to 26 are those (mole/10 mL/kg) shown in Tables. Solutions for administration were prepared with an 0.5% aqueous solutions of HPMC so as to satisfy the dosage amounts.
Note that, the “amount of mole/10 mL/kg” means as follows: for example “10 mmol/10 mL/kg” means that 10 mmol of a test compound per body-weight (1 kg) of a mouse was dispersed or dissolved in a solution (10 mL) for administration. The same applies hereinafter.
The solutions for administration prepared above were orally administered to mice (Balb/cA, male) not fasted each by use of an oral administration sonde.
The mice were anesthetized with isoflurane 0.5, 1, 2, 4 and 6 hours after administration and blood was taken from the facial vein by use of a specific needle (animal lancet) and a heparin-coated hematocrit tube.
The blood sampled was immediately centrifuged (13000 rpm, 2 minutes, 4° C.) to prepare the plasma samples. After proteins were removed from the plasma samples, the concentrations of the test compound in the plasma samples were measured by LC/MS/MS.
The value of “area under the curve” (AUC) of drug concentration in blood versus time was calculated using analysis software such as Phoenix (registered trademark) WinNonlin (registered trademark).
In Table 3, “Comparative Example 1” and “Comparative Example 2” represent the “compound (Br form) of Comparative Example 1” and the “compound (I form) of Comparative Example 2”, respectively. In Table 4, “Comparative Example 6” represents the “compound (C1 form) of Comparative Example 6”.

Nc1ncnc2c1c(Br)cn2[C@@H]1O[C@H](CO)[C@@H](O)[C@@H]1F [Comparative Example 1, (2R,3R,4S,5R)-5-(4-amino-5-bromo-7H-pyrrolo[2,3-d]pyrimidin-7-yl)-4-fluoro-2-(hydroxymethyl) tetrahydrofuran-3-ol]
AUC(0-t): 2.07 µM·h
